This is an account of results in patent US20110281957A1, “ENHANCED BIOACTIVE FORMULATIONS OF RESVERATROL” (Lipoprotein Technologies, Inc., priority 2008, published 2011).

For data set [1] the following is noted: humans, up to 4 g; cited from earlier work.
Data set [2] has as its system breast cancer (MCF-7) cells. The settings on record: MCF-7 cells in vitro; cited from earlier work.
For data set [3] the following is noted: cited from earlier work.
The nature of data set [4]: Visual clarity of the resveratrol/surfactant mixture on addition to water. Format: physicochemical. The note with it: polyoxyl 40 castor oil (macrogoglycerol hydroxystearate) as the surfactant.
Protocol: Water soluble compositions of trans-resveratrol were formulated containing the non-ionic surfactant macrogolglycerol hydroxystearate (polyoxyl 40 castor oil). By heating and stirring this polyoxyl castor oil with a powdered synthetic 99% trans-resveratrol, a clear viscous solution was formed containing dissolved trans-resveratrol (hereinafter referred to as “resveratrol gel formulation”). The resveratrol gel formulation consisted of macrogolglycerol hydroxystearate 40 (50 ml) and powdered trans-resveratrol (3 grams), representing a concentration of 6% for the resveratrol in the surfactant.
The following formulation was prepared as described below: 500 mg of purified resveratrol 99% derived from polygonum cuspidatum (Japanese knotweed) was dissolved in 25 ml of warm macrogoglycerol hydroxystearate until a clear gel was formed. 250 mg of ascorbic acid was added to the clear gel, which was then slowly added to 100 ml of warm water.
Data set [5] relates to ovarian cancer (A-2780) cells. The settings on record: A-2780 cells in vitro; cited from earlier work.
Data set [6] is described as follows: Solubility in pH 7.4 Hank's Balanced Salt Solution, LC/MS/MS. The class given is physicochemical. The settings on record: pH 7.4 buffer, shaken 2 hours, stood overnight at room temperature. The method, then:
The mixtures were shaken for 2 hours using a benchtop vortexer and left to stand overnight at room temperature. […] After vortexing and standing overnight, the resveratrol gel formulation mixture was centrifuged at 14,000 rpm for 10 minutes. The filtrate or supernatant was sampled twice, consecutively, and diluted 10, 100, and 10.000-fold in a mixture of 50:50 assay buffer:acetonitrile prior to analysis. Both mixtures were assayed by LC/MS/MS using electrospray ionization against the standards prepared in a mixture of 50:50 assay buffer:acetonitrile. Standard concentrations ranged from 1.0 μM down to 3.0 nM.

Molecules are shown by their SMILES. Read-outs that look alike come from different tables or passages of the source.

Broadly, the solubility is how much of the substance goes into solution per volume.

As for `O=c1c(O)c(-c2ccc(O)c(O)c2)oc2cc(O)cc(O)c12` [quercetin], the “Detection in plasma after oral administration” value in data set [1] is listed as “No quercetin could be found in plasma”.
For `Oc1ccc(C=Cc2cc(O)cc(O)c2)cc1` [Resveratrol, 3,5,4′-trihydroxystilbene], the Inhibition of proliferation entry in data set [2] and in data set [5] was “inhibited the proliferation” in each case. Besides, the Solubility in water result in data set [3] is “insoluble in water”. In addition, the “Maximum concentration in surfactant for a crystal-clear solution in water” value in data set [4] was ≤ 20%.
For `Oc1ccc(/C=C/c2cc(O)cc(O)c2)cc1` [Powdered Resveratrol, trans-3,5,4′-trihydroxystilbene], the solubility in data set [6] (Hank's Balanced Salt Solution buffer, pH 7.4, aqueous buffer, thermodynamic from solid, average of 2 replicates, read-out: Solubility AVG) turned out to be 0.5 µM; in data set [6] (Hank's Balanced Salt Solution buffer, pH 7.4, aqueous buffer, thermodynamic from solid, replicate 1, read-out: Solubility Rep 1) it was 0.4 µM; in data set [6] (Hank's Balanced Salt Solution buffer, pH 7.4, aqueous buffer, thermodynamic from solid, replicate 2, read-out: Solubility Rep 2) it was 0.61 µM; in data set [6] (average of 2 replicates, read-out: Solubility AVG), 0.505 µM.
